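Test compounds were applied to cells in 96-well plates for 48 hours at 5 doses. The concentration for 50% growth inhibition is given as GI50. The concentration for full growth arrest is given as TGI.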
Columns and labels:
Assay in all cases: inhibition of tumour cell growth, NCI panel, 48 h
SF-268 CNS = tested on: SF-268 CNS
SN12C renal = tested on: SN12C renal
HL-60(TB) leukemia = tested on: HL-60(TB) leukemia
KM12 colon = tested on: KM12 colon
HOP-62 NSCLC = tested on: HOP-62 NSCLC
RXF 393 renal = tested on: RXF 393 renal
SR leukemia = tested on: SR leukemia
HCT-116 colon = tested on: HCT-116 colon
SNB-75 CNS = tested on: SNB-75 CNS
OVCAR-5 ovarian = tested on: OVCAR-5 ovarian

SMILES	TGI (SF-268 CNS) [µM]	TGI (SN12C renal) [µM]	TGI (HL-60(TB) leukemia) [µM]	TGI (KM12 colon) [µM]	TGI (HOP-62 NSCLC) [µM]	TGI (RXF 393 renal) [µM]	TGI (SR leukemia) [µM]	TGI (HCT-116 colon) [µM]	TGI (SNB-75 CNS) [µM]	TGI (OVCAR-5 ovarian) [µM]	GI50 (SF-268 CNS) [µM]	GI50 (OVCAR-5 ovarian) [µM]	GI50 (SN12C renal) [µM]	GI50 (HL-60(TB) leukemia) [µM]	GI50 (KM12 colon) [µM]	GI50 (HOP-62 NSCLC) [µM]	GI50 (RXF 393 renal) [µM]	GI50 (SR leukemia) [µM]	GI50 (HCT-116 colon) [µM]	GI50 (SNB-75 CNS) [µM]
N/C(=N\N=C=C1C(=O)Nc2ccc(F)cc21)NO	> 100	> 100	> 100	> 100	> 100	> 100	> 100	> 100	65.9											
COC1C2c3ccccc3C(C#N)(Cc3ccc4c(c32)OCO4)N1C(=O)c1ccccc1 (centres undefined)	> 100	> 100	> 100	> 100	> 100	> 100	> 100	> 100	> 100	> 100										
CCOc1ccc(NC(=O)/C(=C/c2ccccc2)C(C)=O)cc1	30.7	35	9.66	27.5	30.3	19		17.5	17.9	36.5										
c1ccc(COc2ccc(Nc3ncnc4ccc(-c5ccco5)cc34)cc2)cc1	> 25	> 25	19.2	14.7	16	8.61	> 25	12.4	> 18.9	14.8	8.29	4.57	8.49	7.03	6.09	5.85	3.4	6.7	4.93	6.82
Fc1cccc(C=NC23CC4CC(CC(C4)C2)C3)c1	> 100	> 100	> 100	> 100	> 100	> 100		> 100	> 100	> 100										
Cc1nc(N=C(N)N)nc2ccc3ccccc3c12	2.55	3.84	5.41	4.37	3.6		2.26	4.82	1.97	7.52	0.505	2.29	0.49	2.25	1.03	1.25		0.423	1.12	0.524
CC(=O)[CH-]C(=O)c1ccccc1.CC(=O)[CH-]C(=O)c1ccccc1.[O-]Cc1cccs1.[O-]Cc1cccs1.[Ti+4]	> 100	> 100	> 100	> 100	> 100			> 100	> 100	> 100	> 100	38.2	36.8	4.26	47.9	> 100			33	73.1
COC12c3ccccc3-c3ccccc3C1[C@@H](C(=O)O)[C@H]2C(=O)O (some centres undefined)	> 10	> 10	> 10	> 10	> 10	> 10	> 10		> 10	> 10										
COc1ccccc1NS(=O)(=O)c1cc(C(C)(C)C)ccc1OCCOc1ccc(C(C)(C)C)cc1S(=O)(=O)Nc1ccccc1OC	> 100	> 100	> 100	> 100	> 100	> 100		> 100	> 100	> 100										
CCOC(=O)c1c(-c2ccccc2)[nH]c2ccccc2c1=O	> 100		> 100	> 100	> 100	> 100	> 100	> 100	> 100	> 100										
O=c1[nH]cnc2c1nnn2C1C=C(CO)C(O)C1O (centres undefined)	> 100	> 100		> 100	> 100	> 100	> 100	> 100	> 100	> 100										
Cn1cccc1C1CC(=O)N(CCC[Se]C#N)C1=O (centres undefined)	3.92		4.68	5.36	3.77	3.43	> 100	6.27		6.51	1.92	2.49		2.11	2.11	1.88	1.74	2.76	2.34	
O=C(Nc1ccc(Cl)cc1)C(=O)C1=C(O)c2ccccc2OC1	> 100	> 100	> 100	> 100				> 100	> 100	> 100										
Cc1cc2c(C)nn(Cc3ccc(Cl)cc3Cl)c2c(C#N)c1C	> 100	> 100	> 100		> 100	> 100	> 100	> 100	> 100	> 100										
COc1cc(-c2[nH]ncc2CCCC(=O)Nc2ccccc2[N+](=O)[O-])ccc1O	> 100	> 100	> 100		> 100		> 100	> 100	> 100	> 100										
CCOC(=O)C12CN(C34CC5CC(CC(C5)C3)C4)CC(C(=O)OCC)(C1=O)C(c1ccccc1)OC2c1ccccc1 (centres undefined)	> 100		> 100	> 100	> 100	> 100			> 100	> 100										
CC1=C(C(=O)Nc2cc(F)c(F)cc2F)C(c2cccc([N+](=O)[O-])c2)C(C(=O)Nc2ccccc2C(F)(F)F)=C(C)N1 (centres undefined)	54.6	56.5	37.1	47.4	54.5	46.2			38.4	62.1										
CCCCCNC(=O)C1C(=O)N(CCCCC)C(=O)/C1=N\N (centres undefined)	> 100	> 100	> 100	> 100	> 100					> 100										
Cc1ccc(S(=O)(=O)OC(C=O)C(O)C(O)COC(c2ccccc2)(c2ccccc2)c2ccccc2)cc1 (centres undefined)	35.2	28.9		24.2	30.8	30.3	24.7	30.5	29.4	34.7										
NC(=NCc1ccccc1)N/N=C\c1ccnc2ccccc12	28.6	29.6	36.4	47.9	32.1		4.98		21.5	32.7										
c1ccc(CNc2nc(Nc3ccc(-c4nc5ccccc5[nH]4)cc3)c3cn[nH]c3n2)cc1	7.1	7.37	7.44	4.87	5.48	3.65		3.64	47.1	6.86	2.37	2.52	2.75	2.54	1.9	2.17	1.57		1.74	5.12

SMILES	TGI (SF-268 CNS) [µM]	TGI (SN12C renal) [µM]	TGI (HL-60(TB) leukemia) [µM]	TGI (KM12 colon) [µM]	TGI (HOP-62 NSCLC) [µM]	TGI (RXF 393 renal) [µM]	TGI (SR leukemia) [µM]	TGI (HCT-116 colon) [µM]	TGI (SNB-75 CNS) [µM]	TGI (OVCAR-5 ovarian) [µM]	GI50 (SF-268 CNS) [µM]	GI50 (OVCAR-5 ovarian) [µM]	GI50 (SN12C renal) [µM]	GI50 (HL-60(TB) leukemia) [µM]	GI50 (KM12 colon) [µM]	GI50 (HOP-62 NSCLC) [µM]	GI50 (RXF 393 renal) [µM]	GI50 (SR leukemia) [µM]	GI50 (HCT-116 colon) [µM]	GI50 (SNB-75 CNS) [µM]
COc1cccc(C2C3=C(COC3=O)N(CCO)c3cc4c(cc32)CCC4)c1 (centres undefined)	5.93	> 32.6	0.314	0.443	> 16		0.165	0.692	0.397	> 50	0.0731	0.344	0.269	0.111	0.0219	0.147		0.015	0.0526	0.0236
CCN1N=CSC12C(=O)N(c1ccccc1)C(=O)N2c1ccccc1 (centres undefined)	> 100	> 100	> 100	> 100	> 100	> 100	> 100	> 100	> 100											
COC(=O)[C@@]12C3=NO[C@]1(C(=O)OC)C(O[Si](C)(C)C(C)(C)C)C1OC(C)(C)OC1[C@@H]2[C@@H](OCc1ccccc1)CC3 (some centres undefined)		> 100	13.9	> 100				> 100	> 100											
COc1ccc(C=O)c(N(C)C(=O)C(C)(C)C)c1	> 100	> 100	> 100	> 100	> 100	> 100		> 100	> 100											
COC(=O)C12C3C=CC(O3)C1C1C=CC2O1 (centres undefined)	> 100	> 100	> 100	> 100		> 100	> 100			> 100										
CCOC(=O)C1=C(O)CSC1=Nc1ccc(N=C2SCC(O)=C2C(=O)OCC)cc1	52.4	71.8	> 100	44.9	65.9	32.6		35.2	61.4	54										
COC(=O)C1(c2ccc(OC)cc2)NC(c2ccccc2)C2C(=O)N(c3ccc(OC)cc3)C(=O)C21 (centres undefined)	> 100	> 100	> 100	> 100		> 100			> 100	> 100										
Cn1c(=O)c2c(nc3n2C(CCl)CO3)n(C)c1=O (centres undefined)	> 100	> 100	> 100	> 100	> 100		> 100	> 100	> 100	> 100										
COC(=O)CC(CC(=O)C(=O)OC)C(=O)OC (centres undefined)		> 100	> 100	> 100	> 100	> 100		> 100	> 100	> 100										
CNS(=O)(=O)NN(C)S(=O)(=O)c1ccc(C)cc1	> 100	> 100	> 100	> 100	> 100	> 100	> 100	> 100		> 100										
O=C1/C(=C/c2ccccc2Cl)COc2ccccc21	34.1		58	34.9	35	28.9		17	32.1	32.4										
CC1(C)CC(C2CC(C)(C)CC(C)(C)[C@H]2O)[C@@H](O)C(C)(C)C1 (some centres undefined)	> 100	> 100	> 100	> 100			> 100	> 100												
Nc1ncn([C@@H]2C=C(CO)C(O)C2O)c(=O)n1 (some centres undefined)	> 100	> 100	> 100	> 100	> 100			> 100		> 100										
C/C=C(\C)C(=O)O[C@@H]1C=CC(=O)O[C@H]1COC(=O)[C@H](C)O	19.5	30.2	21.3	27	33.3	30		12.2	32	31.5	3.72	15.3	14.5	4.41	13.3	16.8	6.51		3.39	10.8
Cc1ccc(C)c(NC(=O)CCC(=O)CC(=O)C(C)(C)C)c1	> 100	> 100		> 100	> 100	> 100		> 100	> 100	> 100										
COc1ccc(C(=O)Nc2ccccc2)cc1[N+](=O)[O-]	> 100	> 100		> 100	> 100	> 100			> 100											
Cn1cc(-c2nonc2-c2cn(C)c3ccc(Br)cc23)c2ccccc21	> 100	> 100	> 100	> 100	> 100	5.46		> 100	7.71	> 100	5.79	7.05	5.25	2.95	2.63	5.51	1.99		4.3	1.77
Nc1cc2c3c(cccc3c1)C(=O)N(CCN1CCN(CCN3C(=O)c4cccc5cc(N)cc(c45)C3=O)CC1)C2=O	> 100	> 100	> 100	> 100	> 100	> 100		> 100	> 100	> 100										
C[C@@H](Oc1cc(-n2cnc3ccc(OCC4CCN(C)CC4)cc32)sc1C(N)=O)c1ccccc1C(F)(F)F	3.86	4.28	1.08	0.991	3.11	3.32		3.18	1.42	3.81	0.14	0.114	0.319	0.0708	0.0671	0.0994	0.0879		0.0997	0.0853
COc1cc(C2c3cc4c(cc3[C@@H](OCCN)[C@H]3COC(=O)C23)OCO4)cc(OC)c1O (some centres undefined)	1.48	0.562	0.0633		0.34	2.35	0.0693	4.89	2.43	3.6										
